Experiments:
[1] = biological target: T1, (Homo sapiens, UniProt P30926+P43681); assay: whole-cell patch-clamp recording of nicotinic responses, α4α4 nAChR subtype; type: cell-based; settings: THB 0.1 mM; nicotine 1.0 μM; FIG. 6B (2)
T1 construct: expressed in transfected cells; host or cells: SH-EP1 human epithelial cell line
From the text: (§1) In FIGS. 6-9, whole-cell patch-clamp recording techniques in voltage-clamp mode were used to detect changes in current. Conventional whole-cell current recording coupled with techniques for fast application and removal of agonist (9 channel multi-barrel pipette), were applied in this study. Briefly, cells plated on poly-lysine-coated 35-mm culture dishes were placed on the stage of an inverted microscope (Olympus iX7, Lake Success, N.Y.) and continuously superfused with standard external solution (2 ml/min). Glass microelectrodes (3-5 MΩ resistance between pipette and extracellular solutions) were used to form tight seals (>1 GΩ) on the cell surface until suction was applied to convert to conventional whole-cell recording.
(§2) Both pipette and whole current capacitance were minimized and the series resistance was routinely compensated to 80%. The access resistance before series resistance compensation was between 10-20 MΩ. Data acquisition and analyses were done using Pclamp8 (Axon Instruments), and results were plotted using Origin 5.0 (Microcal, North Hampton, Mass.).
(§3) Data usually were fit over the 10-90% period from inward current peak until agonist exposure was terminated (5-10 sec). The experimental data are presented as means±standard errors, and comparisons of different conditions were analyzed for statistical significance using the Student's t-tests. […]

α4β2-nAChR = biological target: T2, α4β2-nAChR (Homo sapiens, UniProt P17787+P43681); assay: whole-cell patch-clamp recording of nicotine-induced currents, α4β2-nAChR expressed in SH-EP1 cells; type: cell-based; settings: for effect on α4β2-nAChR mediated currents (peak current response, steady-state component): 0.1 mM of each Magnoliidae compound, FIG. 6A
T2 construct: expressed in transfected cells; host or cells: SH-EP1 human epithelial cell line (nAChR-null)
From the text: as §1, §2
Data usually were fit over the 10-90% period from inward current peak until agonist exposure was terminated (5-10 sec). The experimental data are presented as means±standard errors, and comparisons of different conditions were analyzed for statistical significance using the Student's t-tests. All experiments were performed at room temperature (22±1° C.). A pipette electrode solution comprising TrisPO4dibasic 110 milli-Molar (mM), Trisbase 28 mM, Ethylenediaminetetraacetate (EDTA) 11 mM, Magnesium Chloride (MgCl2) 2 mM, Calcium Chloride (CaCl2) 0.5 mM, and Sodium-Adenosine Triphosphate (Na-ATP) 4 mM, resulting in a pH of 7.3, was used.

α7-nAChRs = biological target: T3, α7-nAChRs (Homo sapiens, UniProt P36544); assay: whole-cell patch-clamp recording of nicotinic responses, α7 nAChR subtype; type: cell-based; settings: THB 0.1 mM; nicotine 1.0 μM; FIG. 6B (3)
T3 construct: expressed in transfected cells; host or cells: SH-EP1 human epithelial cell line (stated generally, not specifically for α7)
From the text: as §1, §2, §3

[2] = system: D1-type and D2-type DA receptor; settings: cited from earlier work
D1 receptors = biological target: T4, D1 receptors (Rattus norvegicus, UniProt P18901); settings: rats with unilateral nigral lesion (DA receptor super sensitivity in striatum); cited from earlier work
T4 construct: host or cells: rats with unilateral nigral lesion, in vivo (striatum)

D2 receptor = biological target: T5, D2 receptor (Rattus norvegicus, UniProt P61169); settings: cited from earlier work
T5 construct: host or cells: normal rats, in vivo
T5 sequence (P61169 whole entry): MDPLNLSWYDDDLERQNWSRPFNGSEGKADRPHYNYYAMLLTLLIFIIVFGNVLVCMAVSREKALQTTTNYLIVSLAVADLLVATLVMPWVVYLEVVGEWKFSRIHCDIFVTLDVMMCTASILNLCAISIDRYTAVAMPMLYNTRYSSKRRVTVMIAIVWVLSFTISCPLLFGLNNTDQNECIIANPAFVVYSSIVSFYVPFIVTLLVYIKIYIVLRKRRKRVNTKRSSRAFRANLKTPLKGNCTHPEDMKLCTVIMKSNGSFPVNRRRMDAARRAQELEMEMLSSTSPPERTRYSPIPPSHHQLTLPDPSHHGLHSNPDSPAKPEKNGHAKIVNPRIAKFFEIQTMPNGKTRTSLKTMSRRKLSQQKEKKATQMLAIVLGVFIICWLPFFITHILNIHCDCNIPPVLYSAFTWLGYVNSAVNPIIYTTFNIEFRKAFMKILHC

T2 sequence (P43681 29-627 limits assumed): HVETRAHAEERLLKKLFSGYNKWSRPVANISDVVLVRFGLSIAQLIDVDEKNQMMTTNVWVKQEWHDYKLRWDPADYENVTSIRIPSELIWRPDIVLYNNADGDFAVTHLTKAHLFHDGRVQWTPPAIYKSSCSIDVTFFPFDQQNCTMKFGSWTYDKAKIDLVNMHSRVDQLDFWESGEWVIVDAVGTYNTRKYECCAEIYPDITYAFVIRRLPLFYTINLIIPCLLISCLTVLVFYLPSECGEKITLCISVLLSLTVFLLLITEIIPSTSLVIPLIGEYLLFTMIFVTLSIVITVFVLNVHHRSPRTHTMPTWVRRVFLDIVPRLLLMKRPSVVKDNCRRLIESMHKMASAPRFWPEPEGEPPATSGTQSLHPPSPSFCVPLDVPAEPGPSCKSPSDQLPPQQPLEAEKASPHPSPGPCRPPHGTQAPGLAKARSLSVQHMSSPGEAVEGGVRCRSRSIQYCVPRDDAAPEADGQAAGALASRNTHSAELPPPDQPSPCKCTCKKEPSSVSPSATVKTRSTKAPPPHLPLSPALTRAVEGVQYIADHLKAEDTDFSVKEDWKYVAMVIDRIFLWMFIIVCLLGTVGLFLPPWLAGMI
T2 sequence (P17787 26-502): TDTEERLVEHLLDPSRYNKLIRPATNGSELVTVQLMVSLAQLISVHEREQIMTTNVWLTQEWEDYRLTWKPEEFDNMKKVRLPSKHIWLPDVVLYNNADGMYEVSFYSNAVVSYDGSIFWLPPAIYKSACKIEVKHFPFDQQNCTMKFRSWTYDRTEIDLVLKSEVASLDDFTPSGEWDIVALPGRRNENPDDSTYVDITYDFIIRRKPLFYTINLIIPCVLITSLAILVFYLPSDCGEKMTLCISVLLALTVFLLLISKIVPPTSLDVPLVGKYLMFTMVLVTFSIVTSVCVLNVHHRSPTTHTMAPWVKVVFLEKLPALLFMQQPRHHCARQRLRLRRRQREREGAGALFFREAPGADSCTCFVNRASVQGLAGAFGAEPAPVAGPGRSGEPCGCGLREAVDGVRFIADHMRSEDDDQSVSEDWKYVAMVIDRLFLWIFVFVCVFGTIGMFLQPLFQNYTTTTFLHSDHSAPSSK
T3 sequence (P36544 23-502): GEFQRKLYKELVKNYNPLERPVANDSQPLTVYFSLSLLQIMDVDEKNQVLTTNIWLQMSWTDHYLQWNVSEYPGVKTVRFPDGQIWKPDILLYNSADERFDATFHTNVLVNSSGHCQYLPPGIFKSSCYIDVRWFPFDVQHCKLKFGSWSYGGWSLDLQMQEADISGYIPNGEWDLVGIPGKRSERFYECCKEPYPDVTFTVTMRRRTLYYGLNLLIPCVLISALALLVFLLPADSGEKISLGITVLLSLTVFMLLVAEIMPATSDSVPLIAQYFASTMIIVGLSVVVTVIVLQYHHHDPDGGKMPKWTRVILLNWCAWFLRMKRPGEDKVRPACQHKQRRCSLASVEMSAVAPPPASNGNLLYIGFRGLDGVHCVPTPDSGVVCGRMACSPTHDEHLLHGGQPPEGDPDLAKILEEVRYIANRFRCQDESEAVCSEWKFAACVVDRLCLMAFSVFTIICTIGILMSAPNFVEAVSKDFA
T1 sequence (P43681 27-627): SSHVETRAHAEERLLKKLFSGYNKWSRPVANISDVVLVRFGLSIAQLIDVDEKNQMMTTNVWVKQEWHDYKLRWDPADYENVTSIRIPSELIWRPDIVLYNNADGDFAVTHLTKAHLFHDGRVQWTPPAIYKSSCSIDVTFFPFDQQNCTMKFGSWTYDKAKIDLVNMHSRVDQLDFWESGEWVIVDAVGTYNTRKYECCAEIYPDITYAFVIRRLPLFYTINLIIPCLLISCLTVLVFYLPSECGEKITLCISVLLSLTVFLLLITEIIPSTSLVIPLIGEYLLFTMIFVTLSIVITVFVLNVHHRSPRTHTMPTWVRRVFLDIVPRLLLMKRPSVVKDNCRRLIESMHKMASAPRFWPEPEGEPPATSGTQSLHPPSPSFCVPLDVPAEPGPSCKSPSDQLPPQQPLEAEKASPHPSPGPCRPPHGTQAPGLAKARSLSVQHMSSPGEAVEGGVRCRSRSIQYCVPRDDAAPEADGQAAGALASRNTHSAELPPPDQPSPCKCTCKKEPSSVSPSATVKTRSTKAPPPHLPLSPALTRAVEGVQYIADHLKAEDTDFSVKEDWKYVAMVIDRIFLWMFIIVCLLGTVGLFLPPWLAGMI
T1 sequence (P30926 22-498): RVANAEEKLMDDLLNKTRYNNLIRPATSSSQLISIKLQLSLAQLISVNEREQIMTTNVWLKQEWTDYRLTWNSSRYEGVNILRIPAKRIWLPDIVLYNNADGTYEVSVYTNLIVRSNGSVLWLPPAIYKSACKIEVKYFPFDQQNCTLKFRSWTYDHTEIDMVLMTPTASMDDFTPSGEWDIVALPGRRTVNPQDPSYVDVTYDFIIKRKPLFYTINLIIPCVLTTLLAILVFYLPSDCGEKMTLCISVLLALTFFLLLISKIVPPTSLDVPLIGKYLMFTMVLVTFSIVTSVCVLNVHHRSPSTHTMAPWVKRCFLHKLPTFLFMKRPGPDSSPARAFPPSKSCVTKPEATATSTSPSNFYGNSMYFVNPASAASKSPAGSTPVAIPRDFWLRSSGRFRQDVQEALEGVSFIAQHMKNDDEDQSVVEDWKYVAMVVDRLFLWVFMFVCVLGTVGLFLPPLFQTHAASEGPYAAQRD
T4 sequence (P18901 whole entry): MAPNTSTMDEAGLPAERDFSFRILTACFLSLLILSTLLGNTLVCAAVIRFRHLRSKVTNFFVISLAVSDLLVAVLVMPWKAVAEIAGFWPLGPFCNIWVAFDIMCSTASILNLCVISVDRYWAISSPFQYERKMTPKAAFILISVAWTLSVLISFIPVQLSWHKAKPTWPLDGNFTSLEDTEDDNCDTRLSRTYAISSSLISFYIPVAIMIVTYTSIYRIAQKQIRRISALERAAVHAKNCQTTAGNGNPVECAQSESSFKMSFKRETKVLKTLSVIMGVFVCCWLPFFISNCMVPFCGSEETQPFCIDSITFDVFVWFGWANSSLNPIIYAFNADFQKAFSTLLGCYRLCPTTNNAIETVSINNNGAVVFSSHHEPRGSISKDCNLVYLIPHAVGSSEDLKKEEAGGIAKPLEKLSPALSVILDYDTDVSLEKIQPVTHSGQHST

SMILES | effect on nicotinic response mediated by α4α4 subtype [1] | effect on α4β2-nAChR mediated currents (peak current response, steady-state component) (α4β2-nAChR) | acute desensitization of nicotine-induced currents (α4β2-nAChR; THB 30 μM, holding potentials −40 mV and −80 mV, FIG. 9A-9B) | effect on nicotinic response mediated by α4β2 subtype (α4β2-nAChR; THB 0.1 mM, nicotine 1.0 μM, FIG. 6B (1)) | effect on peak (Ip) and steady-state (Is) components of nicotinic responses at different THB concentrations (α4β2-nAChR; THB 1.0, 10, 100 μM, nicotine 1.0 μM, FIG. 7A-7C) | voltage dependence of suppression of nicotinic response (α4β2-nAChR; depending on holding potential VH) | effect on nicotinic response mediated by α7 subtype (α7-nAChRs) | effect on D1-type and D2-type DA receptor binding [2] | DA receptor characteristics in rats with unilateral nigral lesion (D1 receptors) | DA receptor characteristics in normal rats (D2 receptor)
COc1ccc2c(c1OC)CN1CCc3cc4c(cc3C1C2)OCO4 (stereo not drawn) [THB, Tetrahydroberberine] | inhibition of each nAChR subtype function | inhibition of nAChR function | accelerates acute desensitization | inhibition of each nAChR subtype function | concentration-dependent inhibition | suppressed nicotinic response depending on VH | inhibitory effect occurs more predominantly in α7-nAChRs | equipotent effect | – | –
COc1cc2c(cc1O)[C@@H]1Cc3ccc(O)c(OC)c3CN1CC2 [l-SPD, l-Stepholidine] | – | inhibition of nAChR function | – | – | – | – | – | – | acts on D1 receptors as an agonist | characteristics of D2 receptor antagonist
COc1cc2c(cc1OC)[C@@H]1Cc3ccc(OC)c(OC)c3CN1CC2 [l-THP, l-Tetrahydropalmatine] | – | inhibition of nAChR function | – | – | – | – | – | – | – | –
